Broadly, the IC50 is the concentration needed to halve the response being measured.

The target in assay [1] is human V1a receptor (Homo sapiens (Human), UniProt P37288). Description: Cellular in vitro assay for determining vasopressin receptor activity (V1a, aequorin luminescence). To be noted: for IC50: CHO cell line transfected with human V1a receptor, [Arg8]-vasopressin at EC50 concentration, read-out: IC50 hV1a; for ratio IC50 hV2/hV1a: selectivity, IC50 hV2 divided by IC50 hV1a. Type of assay: cell-based.
human V1a receptor, sequence (P37288 whole entry): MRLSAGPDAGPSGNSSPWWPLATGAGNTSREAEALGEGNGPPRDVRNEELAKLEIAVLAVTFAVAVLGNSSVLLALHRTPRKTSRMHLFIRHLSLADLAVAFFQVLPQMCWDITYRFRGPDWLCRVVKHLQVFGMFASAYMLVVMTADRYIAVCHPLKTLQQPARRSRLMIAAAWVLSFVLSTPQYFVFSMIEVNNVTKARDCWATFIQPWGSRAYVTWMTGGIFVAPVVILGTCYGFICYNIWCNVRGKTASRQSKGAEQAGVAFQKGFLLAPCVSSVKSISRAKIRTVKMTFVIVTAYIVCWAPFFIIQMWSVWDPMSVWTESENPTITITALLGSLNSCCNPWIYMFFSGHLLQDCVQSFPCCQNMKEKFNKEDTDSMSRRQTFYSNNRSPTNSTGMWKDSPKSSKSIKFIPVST

Assay [2] addresses human V2 receptor (Homo sapiens (Human), UniProt P30518). Description: Cellular in vitro assay for determining vasopressin receptor activity (V2, CRE-luciferase). It counts as cell-based. As to conditions: CHO cell line transfected with human V2 receptor; [Arg8]-vasopressin at EC50 concentration; read-out: IC50 hV2.

human V2 receptor, sequence (P30518 whole entry): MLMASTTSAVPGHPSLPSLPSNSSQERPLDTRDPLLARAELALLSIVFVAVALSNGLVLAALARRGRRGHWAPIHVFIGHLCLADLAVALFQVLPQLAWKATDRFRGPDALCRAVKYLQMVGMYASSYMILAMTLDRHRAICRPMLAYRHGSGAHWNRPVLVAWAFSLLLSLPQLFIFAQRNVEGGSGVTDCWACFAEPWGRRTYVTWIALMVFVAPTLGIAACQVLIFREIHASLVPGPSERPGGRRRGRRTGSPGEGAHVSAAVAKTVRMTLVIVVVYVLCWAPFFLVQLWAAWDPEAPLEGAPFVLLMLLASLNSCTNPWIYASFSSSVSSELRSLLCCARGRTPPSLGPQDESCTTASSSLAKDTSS

Turning to `O=C(NC(Cn1c(-c2ccc(Cl)cc2)nn(Cc2ncn(-c3ncccc3Cl)n2)c1=O)C(F)(F)F)C1(O)CC1` (racemic) [Example 22, N-{3-[3-(4-Chlorophenyl)-1-{[1-(3-chloropyridin-2-yl)-1H-1,2,4-triazol-3-yl]methyl}-5-oxo-1,5-dihydro-4H-1,2,4-triazol-4-yl]-1,1,1-trifluoropropan-2-yl}-1-hydroxycyclopropanecarboxamide], the IC50 in assay [1] was found to be 4.05 nM; in assay [2] it was 150 nM. Besides, the “ratio IC50 hV2/hV1a” value in assay [1] is reported as 37.0.
In the same order, the values of `O=C(NC(Cn1c(-c2ccc(Cl)cc2)nn(Cc2ncn(-c3ncccc3C(F)(F)F)n2)c1=O)C(F)(F)F)C1CS(=O)(=O)C1` (racemic) [Example 62, N-{3-[3-(4-Chlorophenyl)-5-oxo-1-({1-[3-(trifluoromethyl)pyridin-2-yl]-1H-1,2,4-triazol-3-yl}methyl)-1,5-dihydro-4H-1,2,4-triazol-4-yl]-1,1,1-trifluoropropan-2-yl}-1,1-dioxo-1lambda^6-thietane-3-carboxamide] are 1.6 nM, 165 nM and 103.1.
`O=C(CCC(F)(F)F)NC(Cn1c(-c2ccc(Cl)cc2)nn(Cc2ncn(-c3ncccc3Cl)n2)c1=O)C(F)(F)F` (single isomer, unassigned) [Example 34, N-{3-[3-(4-Chlorophenyl)-1-{[1-(3-chloropyridin-2-yl)-1H-1,2,4-triazol-3-yl]methyl}-5-oxo-1,5-dihydro-4H-1,2,4-triazol-4-yl]-1,1,1-trifluoropropan-2-yl}-4,4,4-trifluorobutanamide]: the IC50 was 0.82 nM in assay [1] and 33.5 nM in assay [2].
Regarding `O=C(NC(Cn1c(-c2ccc(Cl)cc2)nn(Cc2ncn(-c3ncccc3C(F)(F)F)n2)c1=O)C(F)(F)F)C1CC(F)(F)C1` (racemic) [Example 63, N-{3-[3-(4-Chlorophenyl)-5-oxo-1-({1-[3-(trifluoromethyl)pyridin-2-yl]-1H-1,2,4-triazol-3-yl}methyl)-1,5-dihydro-4H-1,2,4-triazol-4-yl]-1,1,1-trifluoropropan-2-yl}-3,3-difluorocyclobutane-1-carboxamide], the IC50 in assay [1] worked out at 0.72 nM; in assay [2] it was 58.8 nM. In addition, the “ratio IC50 hV2/hV1a” value in assay [1] worked out at 82.2.
As for `O=C(NC(Cn1c(-c2ccc(Cl)cc2)nn(Cc2ncn(-c3ncccc3Cl)n2)c1=O)C(F)(F)F)C1(C(F)(F)F)CC1` (racemic) [Example 41, N-{3-[3-(4-Chlorophenyl)-1-{[1-(3-chloropyridin-2-yl)-1H-1,2,4-triazol-3-yl]methyl}-5-oxo-1,5-dihydro-4H-1,2,4-triazol-4-yl]-1,1,1-trifluoropropan-2-yl}-1-(trifluoromethyl)cyclopropane-carboxamide], the IC50 stood at 1.5 nM in assay [1] and 57 nM in assay [2]. For the same compound, the “ratio IC50 hV2/hV1a” value in assay [1] is given as 38.0.
On to `O=C(CC(F)(F)F)NC(Cn1c(-c2ccc(Cl)cc2)nn(Cc2ncn(-c3ncccc3Cl)n2)c1=O)C(F)(F)F` (racemic) [Example 11, N-{3-[3-(4-Chlorophenyl)-1-{[1-(3-chloropyridin-2-yl)-1H-1,2,4-triazol-3-yl]methyl}-5-oxo-1,5-dihydro-4H-1,2,4-triazol-4-yl]-1,1,1-trifluoropropan-2-yl}-3,3,3-trifluoropropanamide], for which, in assay [1], the IC50 worked out at 1.2 nM and the “ratio IC50 hV2/hV1a” value came to 37.9. For the same compound, the half-inhibitory concentration (IC50) in assay [2] was determined as 45.5 nM.
Take `Cl.O=C(NC(Cn1c(-c2ccc(Cl)cc2)nn(Cc2ncn(-c3ncccc3C(F)(F)F)n2)c1=O)C(F)(F)F)[C@@H]1C[C@H](F)CN1` (stereo partly drawn) [Example 71, N-{3-[3-(4-Chlorophenyl)-5-oxo-1-({1-[3-(trifluoromethyl)pyridin-2-yl]-1H-1,2,4-triazol-3-yl}methyl)-1,5-dihydro-4H-1,2,4-triazol-4-yl]-1,1,1-trifluoropropan-2-yl}-4-fluoro-L-prolinamide]: the half-inhibitory concentration (IC50) stood at 4.9 nM in assay [1] and 275 nM in assay [2]. In assay [1], the “ratio IC50 hV2/hV1a” value amounted to 56.1.
With `O=C(CCC(F)(F)F)NC(Cn1c(-c2ccc(Cl)cc2)nn(Cc2ncn(-c3ncccc3C(F)(F)F)n2)c1=O)C(F)(F)F` (racemic) [Example 59, N-{3-[3-(4-Chlorophenyl)-5-oxo-1-({1-[3-(trifluoromethyl)pyridin-2-yl]-1H-1,2,4-triazol-3-yl}methyl)-1,5-dihydro-4H-1,2,4-triazol-4-yl]-1,1,1-trifluoropropan-2-yl}-4,4,4-trifluorobutanamide], in assay [1], the IC50 was found to be 1.9 nM and the “ratio IC50 hV2/hV1a” value is listed as 39.5. Further, the IC50 in assay [2] was determined as 75 nM.
`CS(=O)(=O)CC(=O)NC(Cn1c(-c2ccc(Cl)cc2)nn(Cc2ncn(-c3ncccc3C(F)(F)F)n2)c1=O)C(F)(F)F` (racemic) [Example 64, N-{3-[3-(4-Chlorophenyl)-5-oxo-1-({1-[3-(trifluoromethyl)pyridin-2-yl]-1H-1,2,4-triazol-3-yl}methyl)-1,5-dihydro-4H-1,2,4-triazol-4-yl]-1,1,1-trifluoropropan-2-yl}-2-(methanesulfonyl)acetamide]: the values for the IC50 in assay [1] and in assay [2] were 1.2 nM and 78.2 nM, respectively. The “ratio IC50 hV2/hV1a” value in assay [1] is listed as 65.2.
Regarding `O=C(NC(Cn1c(-c2ccc(Cl)cc2)nn(Cc2ncn(-c3ncccc3Cl)n2)c1=O)C(F)(F)F)C1CCN1` (stereo not shown) [Example 57, N-{3-[3-(4-Chlorophenyl)-1-{[1-(3-chloropyridin-2-yl)-1H-1,2,4-triazol-3-yl]methyl}-5-oxo-1,5-dihydro-4H-1,2,4-triazol-4-yl]-1,1,1-trifluoropropan-2-yl}azetidine-2-carboxamide], in assay [1], the IC50 was 31.5 nM and the “ratio IC50 hV2/hV1a” value came to 62.8. Also, the IC50 in assay [2] was 1980 nM.
Turning to `CC(=O)NC(Cn1c(-c2ccc(Cl)cc2)nn(Cc2ncn(-c3ncccc3Cl)n2)c1=O)C(F)(F)F` (racemic) [Example 4, N-{3-[3-(4-Chlorophenyl)-1-{[1-(3-chloropyridin-2-yl)-1H-1,2,4-triazol-3-yl]methyl}-5-oxo-1,5-dihydro-4H-1,2,4-triazol-4-yl]-1,1,1-trifluoropropan-2-yl}acetamide], in assay [1], the IC50 worked out at 55.5 nM and the “ratio IC50 hV2/hV1a” value came out at 33.3. In addition, the IC50 in assay [2] was 1850 nM.
For `O=C(NC(Cn1c(-c2ccc(Cl)cc2)nn(Cc2ncn(-c3ncccc3C(F)(F)F)n2)c1=O)C(F)(F)F)C1CC1(F)F` (stereo not shown) [Example 66, N-{3-[3-(4-Chlorophenyl)-5-oxo-1-({1-[3-(trifluoromethyl)pyridin-2-yl]-1H-1,2,4-triazol-3-yl}methyl)-1,5-dihydro-4H-1,2,4-triazol-4-yl]-1,1,1-trifluoropropan-2-yl}-2,2-difluorocyclopropane-1-carboxamide], in assay [1], the IC50 was 5.4 nM and the “ratio IC50 hV2/hV1a” value turned out to be 45.4. Further, the IC50 in assay [2] came out at 245 nM.
`NC1(C(=O)NC(Cn2c(-c3ccc(Cl)cc3)nn(Cc3ncn(-c4ncccc4Cl)n3)c2=O)C(F)(F)F)CCC1` (racemic) [Example 29, 1-Amino-N-{3-[3-(4-chlorophenyl)-1-{[1-(3-chloropyridin-2-yl)-1H-1,2,4-triazol-3-yl]methyl}-5-oxo-1,5-dihydro-4H-1,2,4-triazol-4-yl]-1,1,1-trifluoropropan-2-yl}cyclobutanecarboxamide]: in assay [1], the IC50 came to 5.65 nM and the “ratio IC50 hV2/hV1a” value is reported as 36.0. Further, the IC50 in assay [2] was 203 nM.
On the same counts, the results for `O=C1NCCC1C(=O)NC(Cn1c(-c2ccc(Cl)cc2)nn(Cc2ncn(-c3ncccc3Cl)n2)c1=O)C(F)(F)F` (stereo not shown) [Example 51, N-{3-[3-(4-Chlorophenyl)-1-{[1-(3-chloropyridin-2-yl)-1H-1,2,4-triazol-3-yl]methyl}-5-oxo-1,5-dihydro-4H-1,2,4-triazol-4-yl]-1,1,1-trifluoropropan-2-yl}-2-oxopyrrolidine-3-carboxamide] are 2.9 nM, 57.6 and 167 nM.
With `O=C(NC(Cn1c(-c2ccc(Cl)cc2)nn(Cc2ncn(-c3ncccc3Cl)n2)c1=O)C(F)(F)F)C1CCNC1` (stereo not shown) [Example 24, N-{3-[3-(4-Chlorophenyl)-1-{[1-(3-chloropyridin-2-yl)-1H-1,2,4-triazol-3-yl]methyl}-5-oxo-1,5-dihydro-4H-1,2,4-triazol-4-yl]-1,1,1-trifluoropropan-2-yl}pyrrolidine-3-carboxamide], in assay [1], the IC50 was determined as 4.4 nM and the “ratio IC50 hV2/hV1a” value came to 160.8. In addition, in assay [2], the half-maximal inhibitory concentration (IC50) turned out to be 708 nM.
Consider `COCC(=O)NC(Cn1c(-c2ccc(Cl)cc2)nn(Cc2ncn(-c3ncccc3Cl)n2)c1=O)C(F)(F)F` (racemic) [Example 6, N-{3-[3-(4-Chlorophenyl)-1-{[1-(3-chloropyridin-2-yl)-1H-1,2,4-triazol-3-yl]methyl}-5-oxo-1,5-dihydro-4H-1,2,4-triazol-4-yl]-1,1,1-trifluoropropan-2-yl}-2-methoxyacetamide], for which the IC50 in assay [1] came to 5.65 nM; in assay [2] it was 630 nM. Besides, in assay [1], the “ratio IC50 hV2/hV1a” value was found to be 111.5.
With `NC1(C(=O)NC(Cn2c(-c3ccc(Cl)cc3)nn(Cc3ncn(-c4ncccc4Cl)n3)c2=O)C(F)(F)F)CC1` (racemic) [Example 27, 1-Amino-N-{3-[3-(4-chlorophenyl)-1-{[1-(3-chloropyridin-2-yl)-1H-1,2,4-triazol-3-yl]methyl}-5-oxo-1,5-dihydro-4H-1,2,4-triazol-4-yl]-1,1,1-trifluoropropan-2-yl}cyclopropanecarboxamide], in assay [1], the IC50 was found to be 215 nM and the “ratio IC50 hV2/hV1a” value stood at 8.8. Also, the IC50 in assay [2] was determined as 1900 nM.
Consider `CS(=O)(=O)CC(=O)NC(Cn1c(-c2ccc(Cl)cc2)nn(Cc2ncn(-c3ncccc3Cl)n2)c1=O)C(F)(F)F` (single isomer, unassigned) [Example 45, N-{3-[3-(4-Chlorophenyl)-1-{[1-(3-chloropyridin-2-yl)-1H-1,2,4-triazol-3-yl]methyl}-5-oxo-1,5-dihydro-4H-1,2,4-triazol-4-yl]-1,1,1-trifluoropropan-2-yl}-2-(methylsulfonyl)acetamide], for which the IC50 in assay [1] turned out to be 235 nM; in assay [2], 2300 nM.
